Experimental data as given in PubChem BioAssay AID248 (DTP/NCI, 2004).
Values joined by “and” are separate entries in the source; they are usually repeats but may differ in a detail not shown here. Equal values may be shown once. Toxic doses and inconclusive results are not listed. No stated cut-off is given here; in the data, active means T/C of 150% or more; inactive means T/C below 125%.

Test system: L1210 leukemia ip in BDF1 mice, survival T/C
Assay: NCI In Vivo Anticancer Drug Screen. Data for tumor model L1210 Leukemia (intraperitoneal) in B6D2F1 (BDF1) mice
Conditions: endpoint: mean survival time, higher = longer survival
Method in brief: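 In this screen, tumor-bearing mice given compound are compared to those given vehicle, and their survival values are reported as a treated-to-control quotient.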

[1] = dose: 100.0 mg/kg/injection, schedule: Q04DX002 (ip), vehicle: Klucel (hydroxypropylcellulose) (HPC)
[2] = dose: 200.0 mg/kg/injection, schedule: Q04DX002 (ip), vehicle: Klucel (hydroxypropylcellulose) (HPC)
[3] = dose: 400.0 mg/kg/injection, schedule: Q04DX002 (ip), vehicle: Klucel (hydroxypropylcellulose) (HPC)
[4] = dose: 100.0 mg/kg/injection, schedule: Q04DX003 (ip), vehicle: saline
[5] = dose: 200.0 mg/kg/injection, schedule: Q04DX003 (ip), vehicle: saline
[6] = dose: 400.0 mg/kg/injection, schedule: Q04DX003 (ip), vehicle: saline
[7] = dose: 10.0 mg/kg/injection, schedule: Q01DX001 (ip), vehicle: saline
[8] = dose: 100.0 mg/kg/injection, schedule: Q01DX001 (ip), vehicle: saline
[9] = dose: 200.0 mg/kg/injection, schedule: Q01DX001 (ip), vehicle: saline
[10] = dose: 400.0 mg/kg/injection, schedule: Q01DX001 (ip), vehicle: saline
[11] = dose: 50.0 mg/kg/injection, schedule: Q04DX003 (ip), vehicle: saline with Tween-80
[12] = dose: 100.0 mg/kg/injection, schedule: Q04DX003 (ip), vehicle: saline with Tween-80
[13] = dose: 200.0 mg/kg/injection, schedule: Q04DX003 (ip), vehicle: saline with Tween-80
[14] = dose: 100.0 mg/kg/injection, schedule: Q01DX009 (ip), vehicle: Klucel (hydroxypropylcellulose) (HPC)
[15] = dose: 200.0 mg/kg/injection, schedule: Q01DX009 (ip), vehicle: Klucel (hydroxypropylcellulose) (HPC)
[16] = dose: 100.0 mg/kg/injection, schedule: Q04DX003 (ip), vehicle: Klucel (hydroxypropylcellulose) (HPC)
[17] = dose: 200.0 mg/kg/injection, schedule: Q04DX003 (ip), vehicle: Klucel (hydroxypropylcellulose) (HPC)
[18] = dose: 400.0 mg/kg/injection, schedule: Q01DX009 (ip), vehicle: Klucel (hydroxypropylcellulose) (HPC)
[19] = dose: 400.0 mg/kg/injection, schedule: Q04DX003 (ip), vehicle: Klucel (hydroxypropylcellulose) (HPC)
[20] = dose: 12.5 mg/kg/injection, schedule: Q01DX009 (ip), vehicle: saline
[21] = dose: 25.0 mg/kg/injection, schedule: Q01DX009 (ip), vehicle: saline
[22] = dose: 50.0 mg/kg/injection, schedule: Q01DX009 (ip), vehicle: saline
[23] = dose: 50.0 mg/kg/injection, schedule: Q01DX001 (ip), vehicle: saline
[24] = dose: 400.0 mg/kg/injection, schedule: Q04DX003 (ip), vehicle: saline with Tween-80

Measured: T/C

C=CCON(CC=C)CC=C
inactive: [1] 102 % of control | [2] 102 % of control | [3] 94 % of control

Cn1c(=O)oc2ccccc2c1=S
inactive: [4] 96 % of control | [5] 100 % of control | [6] 100 % of control

CSc1ccccc1N.[Cl][Cu][Cl]
inactive: dose: 5.0 mg/kg/injection, schedule: Q01DX001 (ip), vehicle: saline 103 % of control | [7] 115 % of control

CN(C)/N=C(\Cc1ccccc1)c1ccccc1
inactive: dose: 100.0 mg/kg/injection, schedule: Q01DX001 (ip), vehicle: Klucel (hydroxypropylcellulose) (HPC) 99 % of control | dose: 200.0 mg/kg/injection, schedule: Q01DX001 (ip), vehicle: Klucel (hydroxypropylcellulose) (HPC) 99 % of control | dose: 400.0 mg/kg/injection, schedule: Q01DX001 (ip), vehicle: Klucel (hydroxypropylcellulose) (HPC) 98 % of control

Cc1cn(C2OC(C(O)C(N)=O)C(O)C2O)c(=O)[nH]c1=O (configuration not stated)
inactive: [8] 97 % of control | [9] 114 % of control | [10] 101 % of control

CCCCn1c2ccccc2c2ccccc21
inactive: [11] 96 % of control | [12] 96 % of control | [13] 102 % of control

COc1ccc([N+](=O)[O-])cc1NC(=O)Nc1c(C)n(C)n(-c2ccccc2)c1=O
inactive: dose: 50.0 mg/kg/injection, schedule: Q01DX009 (ip), vehicle: Klucel (hydroxypropylcellulose) (HPC) 108 % of control | [14] 105 % of control | [15] 97 % of control

COc1ccc(OC(=O)Nc2ccccc2C)cc1
inactive: dose: 50.0 mg/kg/injection, schedule: Q04DX002 (ip), vehicle: Klucel (hydroxypropylcellulose) (HPC) 104 % of control | [1] 100 % of control and 101 % of control | [2] 101 % of control | [3] 104 % of control and 111 % of control

O=C/C(=C/c1ccccc1)c1ccccc1
inactive: [14] 98 % of control | [16] 107 % of control | [15] 101 % of control | [17] 98 % of control | [18] 95 % of control | [19] 102 % of control

CC(N)CCc1ccccc1 (configuration not stated)
inactive: [7] 105 % of control | [20] 97 % of control | dose: 12.5 mg/kg/injection, schedule: Q04DX003 (ip), vehicle: saline 102 % of control | dose: 20.0 mg/kg/injection, schedule: Q01DX001 (ip), vehicle: saline 101 % of control | [21] 95 % of control | dose: 25.0 mg/kg/injection, schedule: Q04DX003 (ip), vehicle: saline 112 % of control | dose: 40.0 mg/kg/injection, schedule: Q01DX001 (ip), vehicle: saline 95 % of control | [22] 97 % of control | [11] 90 % of control | dose: 50.0 mg/kg/injection, schedule: Q04DX003 (ip), vehicle: saline 104 % of control | dose: 80.0 mg/kg/injection, schedule: Q01DX001 (ip), vehicle: saline 101 % of control | [8] 100 % of control

COC(=O)C1CC2c3[nH]c4ccccc4c3CCN2C1 (configuration not stated)
inactive: [16] 94 % of control | [17] 92 % of control

O=C(O)COC1CCC(Cl)CC1 (configuration not stated)
inactive: dose: 100.0 mg/kg/injection, schedule: Q01DX009 (ip), vehicle: saline with Tween-80 106 % of control | dose: 100.0 mg/kg/injection, schedule: Q04DX003 (ip), vehicle: acetone 101 % of control | dose: 200.0 mg/kg/injection, schedule: Q01DX009 (ip), vehicle: saline with Tween-80 94 % of control | dose: 200.0 mg/kg/injection, schedule: Q04DX003 (ip), vehicle: acetone 95 % of control | dose: 400.0 mg/kg/injection, schedule: Q01DX009 (ip), vehicle: saline with Tween-80 96 % of control | dose: 400.0 mg/kg/injection, schedule: Q04DX003 (ip), vehicle: acetone 91 % of control

Cc1cccc(C(C#N)c2ccc(N)cc2)c1 (configuration not stated)
inactive: [23] 101 % of control | [8] 101 % of control | [9] 101 % of control

N#CC(Cc1ccccc1)(c1ccccc1)c1ccccc1
inactive: [23] 112 % of control | [8] 114 % of control | [9] 89 % of control | [10] 97 % of control

CCCCCCCCCCCCCCCC[N+]1([O-])CCOCC1
inactive: [20] 96 % of control | [21] 102 % of control | [22] 98 % of control

CN(C)C(=O)C1C2CCC(C2)C1C(=O)N(C)C (configuration not stated)
inactive: [4] 103 % of control | [5] 96 % of control | [6] 100 % of control

Cc1ccccc1N
inactive: [12] 101 % of control | [13] 103 % of control | [24] 95 % of control

COc1cc(Cl)ccc1NC(=O)OCCc1ccccn1
inactive: dose: 100.0 mg/kg/injection, schedule: Q01DX009 (ip), vehicle: saline 97 % of control | dose: 200.0 mg/kg/injection, schedule: Q01DX009 (ip), vehicle: saline 100 % of control | dose: 400.0 mg/kg/injection, schedule: Q01DX009 (ip), vehicle: saline 97 % of control

Cn1c2c(c3ccccc3c1=O)C(=O)c1ccccc1-2
inactive: dose: 50.0 mg/kg/injection, schedule: Q01DX001 (ip), vehicle: carboxymethylcellulose (CMC) 94 % of control | dose: 100.0 mg/kg/injection, schedule: Q01DX001 (ip), vehicle: carboxymethylcellulose (CMC) 94 % of control | dose: 200.0 mg/kg/injection, schedule: Q01DX001 (ip), vehicle: carboxymethylcellulose (CMC) 91 % of control | dose: 400.0 mg/kg/injection, schedule: Q01DX001 (ip), vehicle: carboxymethylcellulose (CMC) 91 % of control

CSc1ccc(NC(=O)Nc2ccccc2)cc1
inactive: [14] 116 % of control | [16] 95 % of control | [15] 106 % of control | [17] 93 % of control | [18] 106 % of control | [19] 95 % of control

Cc1nnnn1-c1ccc([N+](=O)[O-])cc1
inactive: [12] 101 % of control | [13] 101 % of control | [24] 93 % of control

COC(=O)c1ccc(N(C)C/C(CNc2nc(NC(C)=O)nc(SCc3ccccc3)c2[N+](=O)[O-])=N/O)cc1
inactive: dose: 100.0 mg/kg/injection, schedule: Q01DX001 (ip), vehicle: saline with Tween-80 92 % of control | dose: 200.0 mg/kg/injection, schedule: Q01DX001 (ip), vehicle: saline with Tween-80 86 % of control | dose: 400.0 mg/kg/injection, schedule: Q01DX001 (ip), vehicle: saline with Tween-80 96 % of control

C=C1C(=O)O[C@@H]2/C=C(\C)CC/C=C(/C)CC[C@@H]12
inactive: [23] 101 % of control | [8] 86 % of control | [9] 93 % of control | [10] 86 % of control

NC1CCC(Cl)CC1 (configuration not stated)
inactive: [8] 95 % of control | [4] 99 % of control | [9] 106 % of control | [5] 99 % of control | [10] 92 % of control

CC(=O)OC1OC(COC(=O)c2ccc([N+](=O)[O-])cc2)C(NC(=O)C(F)(F)F)C1OC(C)=O (configuration not stated)
inactive: [4] 90 % of control | [5] 96 % of control | [6] 95 % of control
